# In patent US6472381B1, “Method of treating psoriasis” (Biomas Inc., priority 2001, dated 2002):
# Test system: psoriasis
# Test: Separate tests of the single agents for treating psoriasis
# Format: in vivo, human
# Conditions: agent used alone
# Text: Salicylic acid alone was ineffective.
row,Compound,efficacy for treating psoriasis
1,"O=C(O)c1ccccc1O [Salicylic acid, salicylic acid]",ineffective
2,"Cl[Te]1(Cl)(Cl)OCCO1.N [ammonium trichloro (dioxoethylene-O,O′) tellurate]",effective for treating psoriasis but worked very slowly
